{"source": "patent US10246733B2", "about": "“Assay and method for quantitating carbonic anhydrase activity and assessing red blood hemolysis” (CASE WESTERN RESERVE UNIVERSITY, priority 2015, dated 2019)", "key": {"hemolysate released CA": {"system": "hemolysate released CA", "test": "Stopped-flow out-of-equilibrium CA assay on mouse hemolysate", "format": "biochemical", "excerpt": "(§1) [drawing 3] causing pH to rise exponentially.\nAdult C57/BL6 mice (8 to 16 weeks old) were sacrificed by cervical dislocation and blood was immediately collected by cardiac puncture using a 1-mL syringe (Becton, Dickinson and Co., Franklin Lakes, N.J., USA) with a 23 gauge PrecisionGlide needle (Becton, Dickinson and Co.). Prior to blood collection the syringe and needle were rinsed with 0.9% sodium heparin (H4784, Sigma-Aldrich). The blood was transferred to a 1.5-mL microcentrifuge tube, centrifuged in a Beckman Microfuge 16 Microcentrifuge (Beckman, Brea, Calif.) at 600×g for 10 min and the resulting supernatant and buffy coat were removed. To remove any residual extracellular Hb, the pelleted red blood cells (RBCs) were resuspended—in solution A to a 10% hematocrit (Hct)—and centrifuged at 600×g for 5 minutes. This process was repeated 4×. […]\nA solution of isolated Hb was obtained by osmotic lysis of 20 μL of freshly prepared mouse RBCs (see above) in pure H2O (1:8 dilution), followed by centrifugation at 15000×g for 5 minutes in a Beckman Microfuge 16 Microcentrifuge, at RT room temperature. […] The supernatant (cleared of cellular debris) then was removed and transferred to a clean 1.5 mL Eppendorf tube for a The Hb concentration of the supernatant was spectroscopic determination of [Hb] using the visible absorbance spectroscopy as described above. […]"}, "[1]": {"system": "intact RBCs and hemolysate released CA", "test": "Stopped-flow out-of-equilibrium CA assay on mixtures of intact and hemolyzed mouse RBCs", "format": "biochemical", "excerpt": "as §1\nAdult C57/BL6 mice (8 to 16 weeks old) were sacrificed by cervical dislocation and blood was immediately collected by cardiac puncture using a 1-mL syringe (Becton, Dickinson and Co., Franklin Lakes, N.J., USA) with a 23 gauge PrecisionGlide needle (Becton, Dickinson and Co.). Prior to blood collection the syringe and needle were rinsed with 0.9% sodium heparin (H4784, Sigma-Aldrich). The blood was transferred to a 1.5-mL microcentrifuge tube, centrifuged in a Beckman Microfuge 16 Microcentrifuge (Beckman, Brea, Calif.) at 600×g for 10 min and the resulting supernatant and buffy coat were removed. To remove any residual extracellular Hb, the pelleted red blood cells (RBCs) were resuspended—in solution A to a 10% hematocrit (Hct)—and centrifuged at 600×g for 5 minutes. This process was repeated 4×. After the final wash the RBCs were resuspended in solution A to a final Hct of ˜20% to ˜30%.\nA solution of isolated Hb was obtained by osmotic lysis of 20 μL of freshly prepared mouse RBCs (see above) in pure H2O (1:8 dilution), followed by centrifugation at 15000×g for 5 minutes in a Beckman Microfuge 16 Microcentrifuge, at RT room temperature. This centrifugation step separated the cellular debris from the Hb containing supernatant. The supernatant (cleared of cellular debris) then was removed and transferred to a clean 1.5 mL Eppendorf tube for a The Hb concentration of the supernatant was spectroscopic determination of [Hb] using the visible absorbance spectroscopy as described above.\nSimulated degrees of hemolysis (0-up to 100%) were achieved by mixing different proportions of freshly prepared, ostensibly “intact” RBCs and a lysate (representing 100% lysis), while maintaining the total Hb concentration at 5 μM (Table 2). For example, the mixture simulating ostensibly 0% hemolysis contained 5 μM Hb from RBCs. The mixture simulating ostensibly 50% hemolysis contained 2.5 μM Hb from RBCs and 2.5 μM Hb from the lysate supernatant (added to the RBC mixture in a dilution of ˜1:400 to ˜1:4000, depending on the [Hb]). […]"}, "[2]": {"test": "Calibration of pH indicator dye (pK from fluorescence-excitation ratio titration curve)", "format": "physicochemical", "conditions": "10° C., five sets of experiments, ± SD", "experimental": "We calibrated the pH indicator dye pyranine at 10° C. by mixing in the SF device two identical solutions that were either the pH-7.50 “pH calibration solution for dye” listed in (Table 1), or variants thereof obtained by titrating the pH as outlined in a footnote to (Table 1). For each pH value X, we computed (I460/I415)pHx as described in the previous section. We fitted the following theoretical titration curve to our experimental data:\n[formula] which normalizes the data to the value observed at pH 7.5, and forces the function to have a value of unity at this pH.\nWe used an iterative non-linear least-squares method to determine b and pK. […] The best-fit values were 7.11±0.01 (SD) for the pK, and 1.39±0.01(SD) for b. We used these values of pK and b and the values for ratio of (I460/I415) in each experiment to calculate pH."}, "[3]": {"conditions": "cited from earlier work"}}}
{"smiles": "CC(=O)Nc1nnc(S(N)(=O)=O)s1", "note": "[ACZ, acetazolamide]", "values": [{"measurement": "krx (rate constant of HCO3- + H+ -> CO2 + H2O reaction) in presence of ACZ", "setting": "hemolysate released CA; 10 μM ACZ in syringe opposite to hemolysate (5%-100% relative amount), 10° C., reduced to the uncatalyzed value", "value": "~0.02", "unit": "s-^1"}, {"measurement": "time for pHo to reach ~7.5 with ACZ", "setting": "hemolysate released CA; ACZ in solution opposite to hemolysate (FIG. 3D)", "value": "~200", "unit": "s"}, {"measurement": "extracellular CA enzyme activity with ACZ", "setting": "[1]; 10 μM ACZ in syringe opposite to RBCs", "value": "totally blocked"}, {"measurement": "krx (rate constant of HCO3- + H+ -> CO2 + H2O reaction) in presence of ACZ", "setting": "[1]; 10 μM ACZ in syringe opposite to RBCs (5%-100% hemolysis of RBCs), 10° C., reduced to the uncatalyzed value", "value": "~0.02", "unit": "s-^1"}, {"measurement": "time for pHo to reach ~7.5 with ACZ", "setting": "[1]; ACZ in solution opposite to RBCs (FIG. 4D)", "value": "~200", "unit": "s"}]}
{"smiles": "O=S(=O)([O-])c1cc(O)c2ccc3c(S(=O)(=O)[O-])cc(S(=O)(=O)[O-])c4ccc1c2c34.[Na+].[Na+].[Na+]", "note": "[pyranine]", "values": [{"measurement": "pK (best-fit value)", "setting": "[2]", "value": "7.11±0.01"}, {"measurement": "PKa in previous study", "setting": "[3]", "value": "around 7.3"}]}
